The values below come from patent US20240148741A1, “FORMULATION FOR ORAL ADMINISTRATION, COMPRISING TRIAZINE DERIVATIVE” (priority 2021, published 2024).

A short description of this data set: Moisture sorption/desorption isotherm measurement (DVS). It is filed as physicochemical. The following applies: for change in mass when the humidity was changed (DVS): 0% to 95% RH, 25° C. Here is the method: About 15 to 25 mg of a sample was weighed into a sample pan, and measurement was made. Measurement conditions are as follows. • Device: DVS Adventure manufactured by Surface Measurement Systems Ltd. • Measurement points: 0% to 95% RH every 5%, and 95% RH to 0% every 5% • Temperature: 25° C.
Regarding the comparison of the X-ray powder analysis patterns before and after the DVS measurement, measurement was performed by the following method.
• Measuring method: reflection method • Wavelength used: CuKα ray • Tube current: 200 mA • Tube voltage: 45 kV • Sampling plate: aluminum • X-ray incident angle: 2.5° • Sampling width: 0.02° • Detector: HyPix-3000 (two-dimensional detection mode)

As for `Cn1cnc(Cn2c(=O)[nH]/c(=N\c3cc4cn(C)nc4cc3Cl)n(Cc3cc(F)c(F)cc3F)c2=O)n1`, the “change in mass when the humidity was changed (DVS)” value is reported as “No substantial change in mass” (crystal of Example a (FIG. 6)) and “No substantial change in mass” (crystal of Step 5-2 of Example 1b (FIG. 18)). The “crystalline form before and after the DVS measurement (X-ray powder patterns)” value (crystal of Step 5-2 of Example 1b (FIG. 19)) is on record as “did not change”.
